Read-outs that look alike come from different tables or passages of the source.
Key:
EGFR wildtype (WT) = EGFR wildtype (WT) (Homo sapiens, UniProt P00533); test: Biochemical EGFR kinase assay (Lance Ultra TR-FRET), wildtype
Experimental: (§1) Biochemical EGFR kinase assays were conducted using Lance Ultra time-resolved fluorescence resonance energy transfer (TR-FRET) technology from Perkin-Elmer. Compounds of the invention were initially diluted to 20 mM in 100% DMSO for storage and made into kinase buffer solution to create a compound concentration ranging from 0.003 μM and 10 μM.
(§2) Each kinase reactions were incubated at room temperature for 1 hour and then stopped by the addition of 4 μL of stop solution (10 mM EDTA). The specific Europium-labeled-anti-phosphopeptide antibody (PerkinElmer, AD0069) diluted in LANCE detection buffer was then added to a final concentration of 2 nM. After 60 minutes incubation at room temperature the LANCE signal was measured on an EnVision Multilabel Reader (Perkin-Elmer). Excitation wavelength was set at 320 nm and emission monitored at 615 nm (donor) and 665 nm (acceptor). The IC50 values were determined using GraphPad prism software (GraphPad Software, Inc., San Diego, CA, USA).

EGFR L858R/C797S = EGFR L858R/C797S (Homo sapiens, UniProt P00533, C797S/L858R); test: Biochemical EGFR kinase assay (Lance Ultra TR-FRET), L858R/C797S
Experimental: as §1, §2

EGFR del19/C797S = EGFR del19/C797S (Homo sapiens, UniProt P00533, C797S/DEL746-750); test: Biochemical EGFR kinase assay (Lance Ultra TR-FRET), del19/C797S
Experimental: as §1, §2

EGFR del19/T790M/C797S = EGFR del19/T790M/C797S (Homo sapiens, UniProt P00533, C797S/DEL746-750/T790M); test: Biochemical EGFR kinase assay (Lance Ultra TR-FRET), del19/T790M/C797S
Experimental: as §1, §2

EGFR L858R/T790M/C797S = EGFR L858R/T790M/C797S (Homo sapiens, UniProt P00533, C797S/L858R/T790M); test: Biochemical EGFR kinase assay (Lance Ultra TR-FRET), L858R/T790M/C797S
Experimental: as §1, §2

[1] = read-out: IC50 WT (nM) 100 μM ATP, 100 μM ATP
[2] = read-out: IC50 L858R/C797S (nM) 100 μM ATP, 100 μM ATP
[3] = read-out: IC50 del19/C797S (nM) 100 μM ATP, 100 μM ATP
[4] = Km ATP, read-out: IC50 WT (nM) Km ATP
[5] = Km ATP, read-out: IC50 L858R/C797S (nM) Km ATP
[6] = Km ATP, read-out: IC50 del19/C797S (nM) Km ATP
[7] = Km ATP, read-out: IC50 L858R/T790M/C797S (nM) Km ATP
[8] = Km ATP, read-out: IC50 del19/T790M/C797S (nM) Km ATP
[9] = IC50 WT (nM) 100 μM ATP, 100 μM ATP
[10] = IC50 L858R/C797S (nM) 100 μM ATP, 100 μM ATP
[11] = IC50 del19/C797S (nM) 100 μM ATP, 100 μM ATP
[12] = IC50 L858R/T790M/C797S (nM) 100 μM ATP, 100 μM ATP
[13] = IC50 del19/T790M/C797S (nM) 100 μM ATP, 100 μM ATP

Row | Molecule | IC50 (EGFR wildtype (WT); [4]) | IC50 (EGFR L858R/C797S; [5]) | IC50 (EGFR del19/C797S; [6]) | IC50 (EGFR L858R/T790M/C797S; [7]) | IC50 (EGFR del19/T790M/C797S; [8]) | IC50 (EGFR wildtype (WT); [9]) | IC50 (EGFR del19/C797S; [11]) | also measured
1 | 6-((2-(1-(Cyclopropylsulfonyl)-1H-pyrazol-4-yl)pyrimidin-4-yl)amino)-N-(2-fluoroethyl)-4-(((1R,3S)-3-(hydroxymethyl)cyclopentyl)amino)nicotinamide [Example 75] |  |  |  |  |  |  |  | IC50 (EGFR wildtype (WT); [1]): > 10000 nM; IC50 (EGFR L858R/C797S; [2]): 30.5 nM; IC50 (EGFR del19/C797S; [3]): 14.5 nM; IC50 (EGFR del19/T790M/C797S; read-out: IC50 del19/T790M/C797S (nM) 100 μM ATP, 100 μM ATP): 0.7 nM
2 | O=C(c1cnc(Nc2ccnc(-c3cnn(S(=O)(=O)C4CC4)c3)n2)cc1NC[C@H]1CC[C@H](CNC2CCCC2)CC1)C1CC1 [Example 70, (4-((((1r,4r)-4-((Cyclopentylamino)methyl)cyclohexyl)methyl)amino)-6-((2-(1-(cyclopropylsulfonyl)-1H-pyrazol-4-yl)pyrimidin-4-yl)amino)pyridin-3-yl)(cyclopropyl)methanone] | 24.2 nM | 14.4 nM | 2.7 nM | 0.4 nM | 0.3 nM |  |  | 
3 | CN(C)C[C@H]1CC[C@H](CNc2cc(Nc3ccnc(-c4cnn(CC5CC5)c4)n3)ncc2C(=O)C2CC2)CC1 [Example 61, Cyclopropyl(6-((2-(1-(cyclopropylmethyl)-1H-pyrazol-4-yl)pyrimidin-4-yl)amino)-4-((((1r,4r)-4-((dimethylamino)methyl)cyclohexyl)methyl)amino)pyridin-3-yl)methanone] | 415 nM | 123 nM |  |  | 5.7 nM |  |  | 
4 | Cyclopropyl(6-((2-(1-(cyclopropylsulfonyl)-1H-pyrazol-4-yl)pyrimidin-4-yl)amino)-4-((4-((4-methylpiperazin-1-yl)amino)cyclohexyl)amino)pyridin-3-yl)methanone [Example 54] |  |  |  |  |  |  |  | IC50 (EGFR wildtype (WT); [1]): > 10000 nM; IC50 (EGFR L858R/C797S; [2]): 33.8 nM; IC50 (EGFR del19/C797S; [3]): 66.1 nM
5 | CC(C)C(=O)NC[C@H]1CC[C@H](CNc2cc(Nc3ccnc(-c4cnn(S(=O)(=O)C5CC5)c4)n3)ncc2C(=O)C2CC2)CC1 [Example 72, N-(((1r,4r)-4-(((5-(Cyclopropanecarbonyl)-2-((2-(1-(cyclopropylsulfonyl)-1H-pyrazol-4-yl)pyrimidin-4-yl)amino)pyridin-4-yl)amino)methyl)cyclohexyl)methyl)isobutyramide] | 2040 nM | 45.8 nM | 7.2 nM |  | 1 nM |  |  | 
6 | CN(C)C[C@H]1CC[C@H](CNc2cc(Nc3ccnc(-c4cnn(C5CC5)c4)n3)ncc2C(=O)C2CC2)CC1 [Example 60, Cyclopropyl(6-((2-(1-cyclopropyl-1H-pyrazol-4-yl)pyrimidin-4-yl)amino)-4-((((1r,4r)-4-((dimethylamino)methyl)cyclohexyl)methyl)amino)pyridin-3-yl)methanone] | 430 nM | 115 nM |  | 3.5 nM | 5.4 nM |  |  | 
7 | O=C(c1cnc(Nc2ccnc(-c3cnn(S(=O)(=O)C4CC4)c3)n2)cc1N[C@H]1CC[C@H](O)C1)C1CC1 [Example 24, Cyclopropyl(6-((2-(1-(cyclopropylsulfonyl)-1H-pyrazol-4-yl)pyrimidin-4-yl)amino)-4-(((1S,3S)-3-hydroxycyclopentyl)amino)pyridin-3-yl)methanone] |  |  |  |  |  | > 10000 nM | 70.9 nM | IC50 (EGFR L858R/C797S; [10]): 79.1 nM; IC50 (EGFR L858R/T790M/C797S; [12]): 4.4 nM
8 | C[C@H](CCO)Nc1cc(Nc2ccnc(-c3cnn(S(=O)(=O)C4CC4)c3)n2)ncc1C(=O)C1CC1 [Example 7, (R)-Cyclopropyl(6-((2-(1-(cyclopropylsulfonyl)-1H-pyrazol-4-yl)pyrimidin-4-yl)amino)-4-((4-hydroxybutan-2-yl)amino)pyridin-3-yl)methanone] | 426 nM |  | 49.2 nM | 2.7 nM | 0.5 nM |  |  | 
9 | CC(NCC1CCC(CNc2cc(Nc3ccnc(-c4cnn(S(=O)(=O)C5CC5)c4)n3)ncc2C(=O)C2CC2)CC1)C(F)F (centres unmarked) [Example 73, Cyclopropyl(6-((2-(1-(cyclopropylsulfonyl)-1H-pyrazol-4-yl)pyrimidin-4-yl)amino)-4-((((1r,4r)-4-(((1,1-difluoropropan-2-yl)amino)methyl)cyclohexyl)methyl)amino)pyridin-3-yl)methanone] | 691 nM |  | 16.1 nM | 3.1 nM | 17.4 nM |  |  | 
10 | O=C(c1cnc(Nc2ccnc(-c3cnn(S(=O)(=O)C4CC4)c3)n2)cc1N[C@H]1CC[C@@H](NCCF)CC1)C(F)F [Example 51, 1-(6-((2-(1-(Cyclopropylsulfonyl)-1H-pyrazol-4-yl)pyrimidin-4-yl)amino)-4-(((1s,4s)-4-((2-fluoroethyl)amino)cyclohexyl)amino)pyridin-3-yl)-2,2-difluoroethan-1-one] | 1240 nM | 47.1 nM | 45.4 nM | 1.1 nM |  | > 10000 nM | 18.9 nM | IC50 (EGFR L858R/C797S; [10]): 407 nM; IC50 (EGFR L858R/T790M/C797S; [12]): 4.5 nM
11 | O=C(c1cnc(Nc2ccnc(-c3cnn(S(=O)(=O)C4CC4)c3)n2)cc1NCCC1CCOC1)C1CC1 (centres unmarked) [Example 6, Cyclopropyl(6-((2-(1-(cyclopropylsulfonyl)-1H-pyrazol-4-yl)pyrimidin-4-yl)amino)-4-((2-(tetrahydrofuran-3-yl)ethyl)amino)pyridin-3-yl)methanone] | 890 nM |  | 78 nM | 4.5 nM | 0.6 nM |  |  | 
12 | O=C(c1cnc(Nc2ccnc(-c3cnn(S(=O)(=O)C4CC4)c3)n2)cc1NCCF)C1CC1 [Example 3, Cyclopropyl(6-((2-(1-(cyclopropylsulfonyl)-1H-pyrazol-4-yl)pyrimidin-4-yl)amino)-4-((2-fluoroethyl)amino)pyridin-3-yl)methanone] | 4200 nM |  | 232 nM | 5.4 nM | 0.9 nM |  |  | 

Further lines, with some results ahead:

Row | IC50 (EGFR wildtype (WT); [4]) | IC50 (EGFR L858R/C797S; [5]) | IC50 (EGFR del19/C797S; [6]) | IC50 (EGFR L858R/T790M/C797S; [7]) | IC50 (EGFR del19/T790M/C797S; [8]) | IC50 (EGFR wildtype (WT); [9]) | IC50 (EGFR del19/C797S; [11]) | Molecule | also measured
13 |  |  |  |  |  | > 10000 nM | 72.8 nM | O=C(N[C@H]1CC[C@H](O)CC1)c1cnc(Nc2ccnc(-c3cnn(S(=O)(=O)C4CC4)c3)n2)cc1N[C@H]1CC[C@@H](NCCF)CC1 [Example 80, 6-((2-(1-(Cyclopropylsulfonyl)-1H-pyrazol-4-yl)pyrimidin-4-yl)amino)-4-(((1s,4s)-4-((2-fluoroethyl)amino)cyclohexyl)amino)-N-((1r,4r)-4-hydroxycyclohexyl)nicotinamide] | IC50 (EGFR L858R/C797S; [10]): 170 nM; IC50 (EGFR L858R/T790M/C797S; [12]): 2.4 nM; IC50 (EGFR del19/T790M/C797S; [13]): 0.8 nM
14 | 145 nM | 444 nM | 47.7 nM | 5.6 nM |  |  |  | CC(C)Nc1cc(Nc2ccnc(-c3cnn(S(=O)(=O)C4CC4)c3)n2)ncc1F [Example 41, N^2-(2-(1-(Cyclopropylsulfonyl)-1H-pyrazol-4-yl)pyrimidin-4-yl)-5-fluoro-N^4-isopropylpyridine-2,4-diamine] | 
15 |  |  |  |  |  | 1900 nM | 1.8 nM | CN(C)CCNC1CCC(Nc2cc(Nc3ccnc(-c4cnn(S(=O)(=O)C5CC5)c4)n3)ncc2C(=O)C2CC2)CC1 (centres unmarked) [Example 53, Cyclopropyl(6-((2-(1-(cyclopropylsulfonyl)-1H-pyrazol-4-yl)pyrimidin-4-yl)amino)-4-((4-((2-(dimethylamino)ethyl)amino)cyclohexyl)amino)pyridin-3-yl)methanone] | IC50 (EGFR L858R/T790M/C797S; [12]): 0.5 nM; IC50 (EGFR del19/T790M/C797S; [13]): 0.5 nM
16 | 1170 nM | 42.8 nM | 17.2 nM | 1.1 nM |  | > 10000 nM | 8.8 nM | CC(C)(O)[C@H]1CC[C@@H](Nc2cc(Nc3ccnc(-c4cnn(S(=O)(=O)C5CC5)c4)n3)ncc2C(=O)C(F)F)CC1 [Example 50, 1-(6-((2-(1-(Cyclopropylsulfonyl)-1H-pyrazol-4-yl)pyrimidin-4-yl)amino)-4-(((1s,4s)-4-(2-hydroxypropan-2-yl)cyclohexyl)amino)pyridin-3-yl)-2,2-difluoroethan-1-one] | IC50 (EGFR L858R/C797S; [10]): 157 nM; IC50 (EGFR L858R/T790M/C797S; [12]): 6.9 nM
17 |  |  |  |  |  | > 10000 nM | 107 nM | CC(C)Nc1cc(Nc2ccnc(-c3cnn(S(=O)(=O)C4CC4)c3)n2)ncc1C1=CCCCO1 [Example 84, N^2-(2-(1-(Cyclopropylsulfonyl)-1H-pyrazol-4-yl)pyrimidin-4-yl)-5-(3,4-dihydro-2H-pyran-6-yl)-N^4-isopropylpyridine-2,4-diamine] | IC50 (EGFR L858R/C797S; [10]): 523 nM; IC50 (EGFR del19/T790M/C797S; [13]): 4.5 nM
18 | 188 nM |  | 58.9 nM | 2.3 nM | 0.4 nM |  |  | C[C@@H](O)CCNc1cc(Nc2ccnc(-c3cnn(S(=O)(=O)C4CC4)c3)n2)ncc1C(=O)C1CC1 [Example 11, (R)-Cyclopropyl(6-((2-(1-(cyclopropylsulfonyl)-1H-pyrazol-4-yl)pyrimidin-4-yl)amino)-4-((3-hydroxybutyl)amino)pyridin-3-yl)methanone] | 
